Source: US7138361B2, “Herbicidal heterocycles” (E. I. du Pont de Nemours and Company, priority 2000, dated 2006)

Legend:
Format in all cases: in vivo
[1] = system: Nightshade; assay: Test C preemergence; conditions: scale 0 to 100, 0 no effect, 100 complete control
From the text: (§1) Seeds of plant species selected from bermudagrass (Cynodon dactylon), Surinam grass (Brachiaria decumbens), cocklebur (Xanthium strumarium), corn (Zea mays), crabgrass (Digitaria sanguinalis), woolly cupgrass (Eriochloa villosa), giant foxtail (Setaria faberii), goosegrass (Eleusine indica), johnsongrass (Sorghum halepense), kochia (Kochia scoparia), lambsquarters (Chenopodium album), morningglory (Ipomoea hederacea), yellow nutsedge (Cyperus esculentus), pigweed (Amaranthus retroflexus), common ragweed (Ambrosia elatior), soybean (Glycine max) and velvetleaf (Abutilon theophrasti) were planted and treated preemergence with test chemicals formulated in a non-phytotoxic solvent mixture which included a surfactant.
(§2) At the same time, plants selected from these crop and weed species and also winter barley (Hordeum vulgare), blackgrass (Alopecurus myosuroides), canary grass (Phalaris minor), chickweed (Stellaria media), downy brome (Bromus tectorum), green foxtail (Setaria viridis), Italian ryegrass (Lolium multiflorum), wheat (Triticum aestivum), wild oat (Avena fatua) and windgrass (Apera spica-venti) were treated with postemergence applications of some of the test chemicals formulated in the same manner. Plants ranged in height from 2 to 18 cm (1- to 4-leaf stage) for postemergence treatments. Plant species in the flooded paddy test consisted of rice (Oryza saliva), smallflower flatsedge (Cyperus difformis), duck salad (Heteranthera limosa) and barnyardgrass (Echinochloa crus-galli) grown to the 2-leaf stage for testing. Treated plants and controls were maintained in a greenhouse for 12 to 14 days, after which time all species were compared to controls and visually evaluated. Plant response ratings, summarized in Table C, are based on a scale of 0 to 100 where 0 is no effect and 100 is complete control. A dash (-) response means no test result.

[2] = system: bermudagrass (Cynodon dactylon); assay: Test C preemergence; conditions: for Plant response rating, Bermudagrass: scale 0 to 100, 0 no effect, 100 complete control; for Plant response rating (0 to 100 where 0 is no effect and 100 is complete control), Bermudagrass: visual evaluation after 12 to 14 days
From the text: as §1, §2

[3] = system: Surinam grass (Brachiaria decumbens); assay: Test C preemergence; conditions: for Plant response rating, Surinam grass: scale 0 to 100, 0 no effect, 100 complete control; for Plant response rating (0 to 100), Surinam grass: visual evaluation after 12 to 14 days
From the text: as §1, §2

[4] = system: cocklebur (Xanthium strumarium); assay: Test C preemergence; conditions: for Plant response rating, Cocklebur: scale 0 to 100, 0 no effect, 100 complete control; for Plant response rating (0 to 100), Cocklebur: visual evaluation after 12 to 14 days
From the text: as §1, §2

[5] = system: corn (Zea mays); assay: Test C preemergence; conditions: for Plant response rating, Corn: scale 0 to 100, 0 no effect, 100 complete control; for Plant response rating (0 to 100), Corn: visual evaluation after 12 to 14 days
From the text: as §1, §2

[6] = system: giant foxtail (Setaria faberii); assay: Test C preemergence; conditions: for Plant response rating, Foxtail, Giant: scale 0 to 100, 0 no effect, 100 complete control; for Plant response rating (0 to 100), Foxtail, Giant: visual evaluation after 12 to 14 days
From the text: as §1, §2

[7] = system: woolly cupgrass (Eriochloa villosa); assay: Test C preemergence; conditions: for Plant response rating, Cupgrass, Woolly: scale 0 to 100, 0 no effect, 100 complete control; for Plant response rating (0 to 100), Cupgrass, Woolly: visual evaluation after 12 to 14 days
From the text: as §1, §2

[8] = system: goosegrass (Eleusine indica); assay: Test C preemergence; conditions: for Plant response rating, Goosegrass: scale 0 to 100, 0 no effect, 100 complete control; for Plant response rating (0 to 100), Goosegrass: visual evaluation after 12 to 14 days
From the text: as §1, §2

[9] = system: morningglory (Ipomoea hederacea); assay: Test C preemergence; conditions: for Plant response rating, Morningglory: scale 0 to 100, 0 no effect, 100 complete control
From the text: as §1, §2

[10] = system: pigweed (Amaranthus retroflexus); assay: Test C preemergence; conditions: preemergence; for Plant response rating, Pigweed: scale 0 to 100, 0 no effect, 100 complete control
From the text: as §1, §2

[11] = system: common ragweed (Ambrosia elatior); assay: Test C preemergence; conditions: preemergence; for Plant response rating, Ragweed, Common: scale 0 to 100, 0 no effect, 100 complete control
From the text: as §1, §2

[12] = system: yellow nutsedge (Cyperus esculentus); assay: Test C preemergence; conditions: for Plant response rating, Nutsedge: scale 0 to 100, 0 no effect, 100 complete control
From the text: as §1, §2

[13] = system: lambsquarters (Chenopodium album); assay: Test C preemergence; conditions: for Plant response rating, Lambsquarters: scale 0 to 100, 0 no effect, 100 complete control
From the text: as §1, §2

[14] = system: velvetleaf (Abutilon theophrasti); assay: Test C preemergence; conditions: preemergence; for Plant response rating, Velvetleaf: scale 0 to 100, 0 no effect, 100 complete control
From the text: as §1, §2

[15] = system: johnsongrass (Sorghum halepense); assay: Test C preemergence; conditions: for Plant response rating, Johnsongrass: scale 0 to 100, 0 no effect, 100 complete control; for Plant response rating (0 to 100), Johnsongrass: visual evaluation after 12 to 14 days
From the text: as §1, §2

[16] = system: soybean (Glycine max); assay: Test C preemergence; conditions: preemergence; for Plant response rating, Soybean: scale 0 to 100, 0 no effect, 100 complete control
From the text: as §1, §2

[17] = system: crabgrass (Digitaria sanguinalis); assay: Test C preemergence; conditions: for Plant response rating, Crabgrass: scale 0 to 100, 0 no effect, 100 complete control; for Plant response rating (0 to 100), Crabgrass: visual evaluation after 12 to 14 days
From the text: as §1, §2

[18] = system: kochia (Kochia scoparia); assay: Test C preemergence; conditions: for Plant response rating, Kochia: scale 0 to 100, 0 no effect, 100 complete control; for Plant response rating (0 to 100), Kochia: visual evaluation after 12 to 14 days
From the text: as §1, §2

[19] = system: smallflower flatsedge (Cyperus difformis); assay: Test C flooded paddy test; conditions: for Flatsedge plant response rating: Flooded Paddy, scale 0 to 100, 0 no effect, 100 complete control; for Plant response rating, Flatsedge: flooded paddy test, scale 0 to 100 (0 no effect, 100 complete control)
Summary of the method: (§3)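 Visual injury score, 0 (no effect) to 100 (complete control), relative to controls. Paddy plants treated at 2-leaf stage; greenhouse hold 12–14 d before rating.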

[20] = system: barnyardgrass (Echinochloa crus-galli); assay: Test C flooded paddy test; conditions: for Barnyardgrass plant response rating: Flooded Paddy, scale 0 to 100, 0 no effect, 100 complete control; for Plant response rating, Barnyardgrass: flooded paddy test, scale 0 to 100 (0 no effect, 100 complete control)
Summary of the method: as §3

[21] = system: duck salad (Heteranthera limosa); assay: Test C flooded paddy test; conditions: for Ducksalad plant response rating: Flooded Paddy, scale 0 to 100, 0 no effect, 100 complete control; for Plant response rating, Ducksalad: flooded paddy test, scale 0 to 100 (0 no effect, 100 complete control)
Summary of the method: as §3

[22] = preemergence, Rate 500 g/ha, visual evaluation after 12 to 14 days
[23] = Rate 500 g/ha, visual evaluation after 12 to 14 days

Compound: CCC(C)c1ccn(C2OCN(c3cccc(OC(F)(F)F)c3)C2=O)n1 (stereo not shown) [Compound 67]
- Plant response rating, Nightshade ([1]; Rate 62 g/ha): 0
- Plant response rating, Nightshade ([1]; Rate 125 g/ha): 70
- Plant response rating, Nightshade ([1]; Rate 250 g/ha): 80
- Plant response rating, Bermudagrass ([2]; Rate 62 g/ha): 100
- Plant response rating (0 to 100 where 0 is no effect and 100 is complete control), Bermudagrass ([2]; preemergence, Rate 250 g/ha): 100
- Plant response rating (0 to 100 where 0 is no effect and 100 is complete control), Bermudagrass ([2]; preemergence, Rate 500 g/ha): 100
- Plant response rating, Bermudagrass ([2]; preemergence, Rate 125 g/ha): 100
- Plant response rating, Surinam grass ([3]; Rate 62 g/ha): 0
- Plant response rating (0 to 100), Surinam grass ([3]; preemergence, Rate 250 g/ha): 100
- Plant response rating (0 to 100), Surinam grass ([3]; preemergence, Rate 500 g/ha): 100
- Plant response rating, Surinam grass ([3]; preemergence, Rate 125 g/ha): 0
- Plant response rating, Cocklebur ([4]; Rate 62 g/ha): 0
- Plant response rating (0 to 100), Cocklebur ([4]; preemergence, Rate 250 g/ha): 20
- Plant response rating (0 to 100), Cocklebur ([4]; preemergence, Rate 500 g/ha): 50
- Plant response rating, Cocklebur ([4]; preemergence, Rate 125 g/ha): 0
- Plant response rating, Corn ([5]; Rate 62 g/ha): 0
- Plant response rating (0 to 100), Corn ([5]; preemergence, Rate 250 g/ha): 0
- Plant response rating (0 to 100), Corn ([5]; preemergence, Rate 500 g/ha): 100
- Plant response rating, Corn ([5]; preemergence, Rate 125 g/ha): 0
- Plant response rating, Foxtail, Giant ([6]; Rate 62 g/ha): 100
- Plant response rating (0 to 100), Foxtail, Giant ([6]; preemergence, Rate 250 g/ha): 70
- Plant response rating (0 to 100), Foxtail, Giant ([6]; preemergence, Rate 500 g/ha): 100
- Plant response rating, Foxtail, Giant ([6]; preemergence, Rate 125 g/ha): 100
- Plant response rating, Cupgrass, Woolly ([7]; Rate 62 g/ha): 90
- Plant response rating (0 to 100), Cupgrass, Woolly ([7]; preemergence, Rate 250 g/ha): 100
- Plant response rating (0 to 100), Cupgrass, Woolly ([7]; preemergence, Rate 500 g/ha): 100
- Plant response rating, Cupgrass, Woolly ([7]; preemergence, Rate 125 g/ha): 70
- Plant response rating, Goosegrass ([8]; Rate 62 g/ha): 100
- Plant response rating (0 to 100), Goosegrass ([8]; preemergence, Rate 250 g/ha): 100
- Plant response rating (0 to 100), Goosegrass ([8]; preemergence, Rate 500 g/ha): 100
- Plant response rating, Goosegrass ([8]; preemergence, Rate 125 g/ha): 100
- Plant response rating, Morningglory ([9]; Rate 62 g/ha): 0
- Plant response rating (0 to 100), Morningglory [9, 22]: 20
- Plant response rating, Morningglory ([9]; preemergence, Rate 125 g/ha): 0
- Plant response rating, Morningglory ([9]; preemergence, Rate 250 g/ha): 0
- Plant response rating (0 to 100), Pigweed [10, 23]: 80
- Plant response rating, Pigweed ([10]; Rate 125 g/ha): 90
- Plant response rating, Pigweed ([10]; Rate 250 g/ha): 80
- Plant response rating (0 to 100), Ragweed, Common [11, 23]: 70
- Plant response rating, Ragweed, Common ([11]; Rate 125 g/ha): 20
- Plant response rating, Ragweed, Common ([11]; Rate 250 g/ha): 70
- Plant response rating, Nutsedge ([12]; Rate 62 g/ha): 0
- Plant response rating (0 to 100), Nutsedge [12, 22]: 20
- Plant response rating, Nutsedge ([12]; preemergence, Rate 125 g/ha): 40
- Plant response rating, Nutsedge ([12]; preemergence, Rate 250 g/ha): 0
- Plant response rating, Lambsquarters ([13]; Rate 62 g/ha): 100
- Plant response rating (0 to 100), Lambsquarters [13, 22]: 100
- Plant response rating, Lambsquarters ([13]; preemergence, Rate 125 g/ha): 100
- Plant response rating, Lambsquarters ([13]; preemergence, Rate 250 g/ha): 100
- Plant response rating (0 to 100), Velvetleaf [14, 23]: 30
- Plant response rating, Velvetleaf ([14]; Rate 125 g/ha): 50
- Plant response rating, Velvetleaf ([14]; Rate 250 g/ha): 0
- Plant response rating, Johnsongrass ([15]; Rate 62 g/ha): 30
- Plant response rating (0 to 100), Johnsongrass ([15]; preemergence, Rate 250 g/ha): 100
- Plant response rating (0 to 100), Johnsongrass ([15]; preemergence, Rate 500 g/ha): 100
- Plant response rating, Johnsongrass ([15]; preemergence, Rate 125 g/ha): 60
- Plant response rating (0 to 100), Soybean [16, 23]: 0
- Plant response rating, Soybean ([16]; Rate 125 g/ha): 0
- Plant response rating, Soybean ([16]; Rate 250 g/ha): 0
- Plant response rating, Crabgrass ([17]; Rate 62 g/ha): 100
- Plant response rating (0 to 100), Crabgrass ([17]; preemergence, Rate 250 g/ha): 100
- Plant response rating (0 to 100), Crabgrass ([17]; preemergence, Rate 500 g/ha): 100
- Plant response rating, Crabgrass ([17]; preemergence, Rate 125 g/ha): 100
- Plant response rating, Kochia ([18]; Rate 62 g/ha): 90
- Plant response rating (0 to 100), Kochia ([18]; preemergence, Rate 250 g/ha): 90
- Plant response rating (0 to 100), Kochia ([18]; preemergence, Rate 500 g/ha): 100
- Plant response rating, Kochia ([18]; preemergence, Rate 125 g/ha): 100
- Flatsedge plant response rating ([19]; Rate 250 g/ha): 100
- Flatsedge plant response rating ([19]; Rate 500 g/ha): 100
- Plant response rating, Flatsedge ([19]; Rate 62 g/ha): 100
- Plant response rating, Flatsedge ([19]; Rate 125 g/ha): 100
- Barnyardgrass plant response rating ([20]; Rate 250 g/ha): 100
- Barnyardgrass plant response rating ([20]; Rate 500 g/ha): 100
- Plant response rating, Barnyardgrass ([20]; Rate 62 g/ha): 60
- Plant response rating, Barnyardgrass ([20]; Rate 125 g/ha): 70
- Ducksalad plant response rating ([21]; Rate 250 g/ha): 100
- Ducksalad plant response rating ([21]; Rate 500 g/ha): 100
- Plant response rating, Ducksalad ([21]; Rate 62 g/ha): 50
- Plant response rating, Ducksalad ([21]; Rate 125 g/ha): 90
